In ChEMBL document CHEMBL1128683, “Identification of 3,5-dihydro-2-aryl-1H-pyrazolo[3,4-c]quinoline-1,4(2H)-diones as novel high-affinity glycine site N-methyl-D-aspartate antagonists” (J Med Chem, 1995):

Target: Glutamate receptor ionotropic, NMDA 1 (Rattus norvegicus, UniProt P35439)
Test: Inhibition of [3H]-3 binding to the glycine site on the NMDA receptor in Rat cortical membranes

Compound | IC50 [nM]
O=c1[nH]c2ccccc2c2c(=O)n(-c3ccc(Cl)cc3)[nH]c12 | 138
O=c1[nH]c2ccccc2c2c(=O)n(-c3ccccc3Cl)[nH]c12 | 613
Cn1[nH]c2c(=O)[nH]c3ccccc3c2c1=O | 2020
O=c1[nH]c2ccccc2c2c(=O)n(Cc3ccccc3)[nH]c12 | 562
O=c1[nH]c2cc(Cl)ccc2c2c(=O)n(-c3ccccc3)[nH]c12 | 16
Cn1c2c(=O)[nH]c3ccccc3c2c(=O)n1-c1ccccc1 | > 100

Results, then the compound that gave them:

IC50 [nM] | Compound
87 | COc1ccc(-n2[nH]c3c(=O)[nH]c4ccccc4c3c2=O)cc1
135 | O=c1[nH]c2ccccc2c2c(=O)n(-c3ccccc3)[nH]c12
3.3 | COc1ccc(-n2[nH]c3c(=O)[nH]c4cc(Cl)ccc4c3c2=O)cc1
162 | O=c1[nH]c2ccccc2c2c(=O)n(-c3cccc(Cl)c3)[nH]c12
